Test results: ChEMBL document CHEMBL1201862, “PubChem BioAssay data set” (2004)
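Exposure lasted 48 hours, with cells grown in 96-well plates and compounds tested at five concentrations. GI50 marks 50% less growth.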 The source made the active and inactive calls. No stated cut-off is given here; in the data, active = GI50 up to about 1.1 µM and inactive = higher.

How the values were obtained:
Assay in all cases: NCI-60 cell line screen, 48 h
NCI-H23 = tested on: NCI-H23
MDA-MB-435 = tested on: MDA-MB-435
SNB-19 = tested on: SNB-19
A549 = tested on: A549
SF-539 = tested on: SF-539
BT-549 = tested on: BT-549
MDA-N = tested on: MDA-N
SF-268 = tested on: SF-268
SW-620 = tested on: SW-620
HCT-116 = tested on: HCT-116
NCI-H460 = tested on: NCI-H460
OVCAR-3 = tested on: OVCAR-3
MOLT-4 = tested on: MOLT-4
OVCAR-8 = tested on: OVCAR-8
A498 = tested on: A498
HOP-92 = tested on: HOP-92
SK-MEL-5 = tested on: SK-MEL-5
SK-OV-3 = tested on: SK-OV-3
SF-295 = tested on: SF-295
DU-145 = tested on: DU-145
RXF 393 = tested on: RXF 393
UO-31 = tested on: UO-31
COLO 205 = tested on: COLO 205
SNB-75 = tested on: SNB-75
MDA-MB-231 = tested on: MDA-MB-231
TK-10 = tested on: TK-10
RPMI-8226 = tested on: RPMI-8226
786-0 = tested on: 786-0
IGROV-1 = tested on: IGROV-1
OVCAR-5 = tested on: OVCAR-5
LOX IMVI = tested on: LOX IMVI
HCT-15 = tested on: HCT-15
HOP-62 = tested on: HOP-62
ACHN = tested on: ACHN
EKVX = tested on: EKVX
SK-MEL-28 = tested on: SK-MEL-28
NCI/ADR-RES = tested on: NCI/ADR-RES
NCI-H226 = tested on: NCI-H226
U-251 = tested on: U-251
KM12 = tested on: KM12
SN12C = tested on: SN12C
CAKI-1 = tested on: CAKI-1
Malme-3M = tested on: Malme-3M
UACC-257 = tested on: UACC-257
T47D = tested on: T47D
M14 = tested on: M14
HT-29 = tested on: HT-29
OVCAR-4 = tested on: OVCAR-4
NCI-H522 = tested on: NCI-H522
MCF7 = tested on: MCF7
K562 = tested on: K562
SR = tested on: SR
SK-MEL-2 = tested on: SK-MEL-2
UACC-62 = tested on: UACC-62
HCC 2998 = tested on: HCC 2998
CCRF-CEM = tested on: CCRF-CEM
PC-3 = tested on: PC-3

Structure (SMILES): Cn1c(C(C#N)c2nc(Cl)ncc2Br)nc2ccccc21 (stereo not drawn)
- GI50 (NCI-H23): > 100 µM (inactive)
- GI50 (MDA-MB-435): > 100 µM (inactive)
- GI50 (SNB-19): > 100 µM (inactive)
- GI50 (A549): > 100 µM (inactive)
- GI50 (SF-539): 44.5 µM (inactive)
- GI50 (BT-549): > 100 µM (inactive)
- GI50 (MDA-N): > 100 µM (inactive)
- GI50 (SF-268): > 100 µM (inactive)
- GI50 (SW-620): > 100 µM (inactive)
- GI50 (HCT-116): > 100 µM (inactive)
- GI50 (NCI-H460): > 100 µM (inactive)
- GI50 (OVCAR-3): > 100 µM (inactive)
- GI50 (MOLT-4): > 100 µM (inactive)
- GI50 (OVCAR-8): > 100 µM (inactive)
- GI50 (A498): > 100 µM (inactive)
- GI50 (HOP-92): > 100 µM (inactive)
- GI50 (SK-MEL-5): > 100 µM (inactive)
- GI50 (SK-OV-3): > 100 µM (inactive)
- GI50 (SF-295): > 100 µM (inactive)
- GI50 (DU-145): > 100 µM (inactive)
- GI50 (RXF 393): > 100 µM (inactive)
- GI50 (UO-31): > 100 µM (inactive)
- GI50 (COLO 205): > 100 µM (inactive)
- GI50 (SNB-75): 82 µM (inactive)
- GI50 (MDA-MB-231): > 100 µM (inactive)
- GI50 (TK-10): > 100 µM (inactive)
- GI50 (RPMI-8226): > 100 µM (inactive)
- GI50 (786-0): > 100 µM (inactive)
- GI50 (IGROV-1): > 100 µM (inactive)
- GI50 (OVCAR-5): > 100 µM (inactive)
- GI50 (LOX IMVI): > 100 µM (inactive)
- GI50 (HCT-15): > 100 µM
- GI50 (HOP-62): > 100 µM (inactive)
- GI50 (ACHN): > 100 µM (inactive)
- GI50 (EKVX): > 100 µM (inactive)
- GI50 (SK-MEL-28): > 100 µM (inactive)
- GI50 (NCI/ADR-RES): > 100 µM (inactive)
- GI50 (NCI-H226): > 100 µM (inactive)
- GI50 (U-251): > 100 µM (inactive)
- GI50 (KM12): > 100 µM (inactive)
- GI50 (SN12C): > 100 µM (inactive)
- GI50 (CAKI-1): > 100 µM (inactive)
- GI50 (Malme-3M): > 100 µM (inactive)
- GI50 (UACC-257): > 100 µM (inactive)
- GI50 (T47D): > 100 µM (inactive)
- GI50 (M14): > 100 µM (inactive)
- GI50 (HT-29): > 100 µM (inactive)
- GI50 (OVCAR-4): > 100 µM (inactive)
- GI50 (NCI-H522): > 100 µM (inactive)

Structure (SMILES): CC1(C)OC2OC(COC(=O)c3ccc(C#N)cc3)C3OC(C)(C)OC3C2O1 (stereo not drawn)
- GI50 (MCF7): > 75 µM (inactive)
- GI50 (NCI-H23): > 75 µM (inactive)
- GI50 (MDA-MB-435): > 75 µM (inactive)
- GI50 (SNB-19): > 75 µM (inactive)
- GI50 (K562): > 75 µM (inactive)
- GI50 (A549): > 75 µM (inactive)
- GI50 (SF-539): > 75 µM (inactive)
- GI50 (SR): > 75 µM (inactive)
- GI50 (SK-MEL-2): > 75 µM (inactive)
- GI50 (BT-549): > 75 µM (inactive)
- GI50 (MDA-N): > 75 µM (inactive)
- GI50 (SF-268): > 75 µM (inactive)
- GI50 (SW-620): > 75 µM (inactive)
- GI50 (UACC-62): > 75 µM (inactive)
- GI50 (HCT-116): > 75 µM (inactive)
- GI50 (OVCAR-3): > 75 µM (inactive)
- GI50 (MOLT-4): > 75 µM (inactive)
- GI50 (OVCAR-8): > 75 µM (inactive)
- GI50 (A498): > 75 µM (inactive)
- GI50 (SK-MEL-5): > 75 µM (inactive)
- GI50 (SK-OV-3): > 75 µM (inactive)
- GI50 (SF-295): > 75 µM (inactive)
- GI50 (HCC 2998): > 75 µM (inactive)
- GI50 (DU-145): > 75 µM (inactive)
- GI50 (RXF 393): > 75 µM (inactive)
- GI50 (CCRF-CEM): 50.7 µM (inactive)
- GI50 (UO-31): 46.9 µM (inactive)
- GI50 (COLO 205): > 75 µM (inactive)
- GI50 (SNB-75): > 75 µM (inactive)
- GI50 (MDA-MB-231): > 75 µM (inactive)
- GI50 (TK-10): > 75 µM (inactive)
- GI50 (RPMI-8226): 57.8 µM (inactive)
- GI50 (786-0): > 75 µM (inactive)
- GI50 (IGROV-1): > 75 µM (inactive)
- GI50 (OVCAR-5): > 75 µM (inactive)
- GI50 (LOX IMVI): > 75 µM (inactive)
- GI50 (HCT-15): > 75 µM
- GI50 (HOP-62): > 75 µM (inactive)
- GI50 (ACHN): > 75 µM (inactive)
- GI50 (EKVX): > 75 µM (inactive)
- GI50 (SK-MEL-28): > 75 µM (inactive)
- GI50 (NCI/ADR-RES): > 75 µM (inactive)
- GI50 (NCI-H226): > 75 µM (inactive)
- GI50 (U-251): > 75 µM (inactive)
- GI50 (KM12): > 75 µM (inactive)
- GI50 (SN12C): > 75 µM (inactive)
- GI50 (CAKI-1): > 75 µM (inactive)
- GI50 (PC-3): > 75 µM (inactive)
- GI50 (Malme-3M): 61 µM (inactive)
- GI50 (UACC-257): > 75 µM (inactive)
- GI50 (M14): > 75 µM (inactive)
- GI50 (HT-29): > 75 µM (inactive)
- GI50 (OVCAR-4): > 75 µM (inactive)
- GI50 (NCI-H522): > 75 µM (inactive)
